According to the NIST ThermoML archive (doi:10.1016/j.tca.2016.08.008):

Experiment: molar heat capacity at constant pressure
Details: 101.33 kPa, Metastable crystal, Vacuum adiabatic calorimetry

O=P([O-])([O-])[O-].[Tb+3] [terbium orthophosphate]
Details | molar heat capacity at constant pressure [J/K/mol]
7 K | 0.2233
8 K | 0.3348
8.48 K | 0.404
9 K | 0.4742
9.05 K | 0.511
9.71 K | 0.655
10 K | 0.6496
10.37 K | 0.779
11.05 K | 0.934
11.74 K | 1.116
12 K | 1.115
12.45 K | 1.328
13.16 K | 1.551
13.89 K | 1.784
14 K | 1.738
14.62 K | 2.037
15.36 K | 2.349
16 K | 2.51
16.12 K | 2.666
16.88 K | 2.985
17.64 K | 3.316
18 K | 3.404
18.41 K | 3.69
19.18 K | 4.058
19.96 K | 4.44
20 K | 4.388
21.2 K | 5.035
22.67 K | 5.753
24.17 K | 6.522
25 K | 7.043
25.69 K | 7.302
27.22 K | 8.099
28.76 K | 8.951
30 K | 9.779
30.31 K | 9.817
31.87 K | 10.74
33.44 K | 11.64
35 K | 12.55
35.02 K | 12.43
36.6 K | 13.44
38.18 K | 14.4
39.77 K | 15.33
40 K | 15.41
41.38 K | 16.26
42.98 K | 17.22
44.6 K | 18.17
45 K | 18.37
46.24 K | 19.19
47.86 K | 20.2
49.48 K | 21.22
50 K | 21.44
51.11 K | 22.24
52.74 K | 23.26
54.37 K | 24.23
55 K | 24.56
56 K | 25.23
57.64 K | 26.25
59.28 K | 27.25
60 K | 27.69
60.93 K | 28.25
62.57 K | 29.31
64.22 K | 30.35
65.88 K | 31.35
67.53 K | 32.33
69.19 K | 33.27
70 K | 33.8
71.05 K | 34.29
73.13 K | 35.52
75.2 K | 36.74
77.26 K | 38.04
79.33 K | 39.29
80 K | 39.56
81.4 K | 40.39
83.47 K | 41.31
83.73 K | 41.32
85.54 K | 42.27
85.78 K | 42.39
87.61 K | 43.75
87.83 K | 43.95
89.69 K | 44.86
89.89 K | 45.03
90 K | 44.91
91.76 K | 45.8
